{
  "source": "paper PMC6832551",
  "about": "“An Antiviral Peptide from Alopecosa nagpag Spider Targets NS2B–NS3 Protease of Flaviviruses” (Toxins, 2019)",
  "origin": "cited, not measured here",
  "system": "ZIKV",
  "text": "Despite their differences in pathogeneses, DENV and ZIKV are representative, emerging mosquito-borne flaviviruses with similar replication cycles which infect millions of people annually. The non-structural proteins of flaviviruses are important for virus replication and assembly. It has been established that NS2B–NS3 forms the viral protease and NS3 alone serves as the dsRNA helicase. Recently, the NS2B–NS3 protease became an attractive antiviral target, and many of its inhibitors have been reported as potential antivirals. Protease inhibitors are ubiquito ...",
  "note": "Structures can show the parent of a compound that is named as a salt.",
  "data": [
    {"smiles": "CC(C)C[C@H]1C(=O)N2CCC[C@H]2[C@]2(O)O[C@](NC(=O)[C@@H]3C=C4c5cccc6[nH]c(Br)c(c56)C[C@H]4N(C)C3)(C(C)C)C(=O)N12", "note": "[bromocriptine, Bromocriptine mesylate]", "values": [
      {"measurement": "ZIKV viral replication (in words)", "result": "confirmed to inhibit ZIKV protease activity and viral replication"}
    ]}
  ]
}
